Data as given in US7932384B2, “Reverse-turn mimetics and method relating thereto” (Choongwae Pharma Corporation, priority 2001, dated 2011).

Tests used:
Assay type in all cases: cell-based
T84 = assay: Sulforhodamine B (SRB) assay, T84; details: Colon, T84, 48 hours
Method: (§1) Growth inhibitory effect of Compound A on the cells listed below was measured by the sulforhodamine B assay. SW480 cells in 100 μl media were plated in each well of 96-well plate and allowed to attach for 24 hours. Compound A was added to the wells to produce the desired final concentrations, and the plates were incubated at 37° C. for 48 hours. The cells were then fixed by gentle addition of 100 μl of cold (4° C.) 10% trichloroacetic acid to each well, followed by incubation at 4° C. for 1 hour. Plates were washed with deionized water five times and allowed to air dry. The cells were then stained by addition of 100 μl SRB solution (0.4% SRB(w/v) in 1% acetic acid (v/v)) to wells for 15 min. After staining, the plates were quickly washed five times with 1% acetic acid to remove any unbound dye, and allowed to air dry. Bound dye was solubilized with 10 mmol/L Tris base (pH 10.5) prior to reading the plates. The optical density (OD) was read on a plate reader at a wavelength of 515 nm with Molecular Device. Inhibition of growth was expressed as relative viability (% of control) and GI50 was calculated from concentration-response curves after log/probit transformation.
(§2) The values in Table 6 are in μg/ml.

LOVO = assay: Sulforhodamine B (SRB) assay, LOVO; details: Colon, 48 hours
Method: as §1, §2

HT29 = assay: Sulforhodamine B (SRB) assay, HT29; details: Colon, HT29, 48 hours
Method: as §1, §2

DLD-1 = assay: Sulforhodamine B (SRB) assay, DLD-1; details: Colon, DLD-1, 48 hours
Method: as §1, §2

COLO205 = assay: Sulforhodamine B (SRB) assay, COLO205; details: Colon, COLO205, 48 hours
Method: as §1, §2

SW480-Kribb = assay: Sulforhodamine B (SRB) assay, SW480-Kribb; details: Colon, 48 hours
Method: as §1, §2

SW620 = assay: Sulforhodamine B (SRB) assay, SW620; details: Colon, SW620, 48 hours
Method: as §1, §2

KM12 = assay: Sulforhodamine B (SRB) assay, KM12; details: Colon, KM12, 48 hours
Method: as §1, §2

HCT15 = assay: Sulforhodamine B (SRB) assay, HCT15; details: Colon, HCT15, 48 hours
Method: as §1, §2

HCT116 = assay: Sulforhodamine B (SRB) assay, HCT116; details: Colon, HCT116, 48 hours
Method: as §1, §2

HCC2998 = assay: Sulforhodamine B (SRB) assay, HCC2998; details: Colon, HCC2998, 48 hours
Method: as §1, §2

HL60 = assay: Sulforhodamine B (SRB) assay, HL60; details: Leukemia, HL60, 48 hours
Method: as §1, §2

RPMI8226 = assay: Sulforhodamine B (SRB) assay, RPMI8226; details: Leukemia, RPMI8226, 48 hours
Method: as §1, §2

K562/VIN = assay: Sulforhodamine B (SRB) assay, K562/VIN; details: Leukemia, 48 hours
Method: as §1, §2

K562/ADR = assay: Sulforhodamine B (SRB) assay, K562/ADR; details: Leukemia, 48 hours
Method: as §1, §2

K562 = assay: Sulforhodamine B (SRB) assay, K562; details: Leukemia, K562, 48 hours
Method: as §1, §2

PC3 = assay: Sulforhodamine B (SRB) assay, PC3; details: Prostate, PC3, 48 hours
Method: as §1, §2

HT1080 = assay: Sulforhodamine B (SRB) assay, HT1080; details: Prostate, HT1080, 48 hours
Method: as §1, §2

A549 = assay: Sulforhodamine B (SRB) assay, A549; details: Lung, A549, 48 hours
Method: as §1, §2

NCI H460 = assay: Sulforhodamine B (SRB) assay, NCI H460; details: Lung, NCI H460, 48 hours
Method: as §1, §2

CAKI-1 = assay: Sulforhodamine B (SRB) assay, CAKI-1; details: Renal, CAKI-1, 48 hours
Method: as §1, §2

UACC62 = assay: Sulforhodamine B (SRB) assay, UACC62; details: Melanoma, UACC62, 48 hours
Method: as §1, §2

SK-MEL-28 = assay: Sulforhodamine B (SRB) assay, SK-MEL-28; details: Melanoma, SK-MEL-28, 48 hours
Method: as §1, §2

SK-MEL-5 = assay: Sulforhodamine B (SRB) assay, SK-MEL-5; details: Melanoma, SK-MEL-5, 48 hours
Method: as §1, §2

LOX-IMVI = assay: Sulforhodamine B (SRB) assay, LOX-IMVI; details: Melanoma, 48 hours
Method: as §1, §2

A375 = assay: Sulforhodamine B (SRB) assay, A375; details: Melanoma, A375, 48 hours
Method: as §1, §2

MCF7 = assay: Sulforhodamine B (SRB) assay, MCF7; details: Breast, MCF7, 48 hours
Method: as §1, §2

caspase 3 = assay: Caspase 3 activity in cultured tumor cells; details: 0.5 μM
caspase 2 = assay: Caspase 2 activity in cultured tumor cells; details: 0.5 μM
cultured tumor cells [1] = assay: Cell death of cultured tumor cells; details: 0.5 μM
cultured tumor cells [2] = assay: FACS analysis of cells in G0, cultured tumor cells; details: 0.5 μM
CACO-2 = assay: Sulforhodamine B (SRB) assay, CACO-2; details: Colon, CACO-2, 48 hours
Method: as §1, §2

SW480-CWP = assay: Sulforhodamine B (SRB) assay, SW480-CWP; details: Colon, 48 hours
Method: as §1, §2

786-0 = assay: Sulforhodamine B (SRB) assay, 786-0; details: Renal, 786-0, 48 hours
Method: as §1, §2

NCI H23 = assay: Sulforhodamine B (SRB) assay, NCI H23; details: Lung, NCI H23, 48 hours
Method: as §1, §2

293 = assay: Sulforhodamine B (SRB) assay, 293; details: Renal, 293, 48 hours
Method: as §1, §2

ACHN = assay: Sulforhodamine B (SRB) assay, ACHN; details: Renal, 48 hours
Method: as §1, §2

RPMI7951 = assay: Sulforhodamine B (SRB) assay, RPMI7951; details: Melanoma, RPMI7951, 48 hours
Method: as §1, §2

M14 = assay: Sulforhodamine B (SRB) assay, M14; details: Melanoma, M14, 48 hours
Method: as §1, §2

HMV-I = assay: Sulforhodamine B (SRB) assay, HMV-I; details: Melanoma, 48 hours
Method: as §1, §2

G361 = assay: Sulforhodamine B (SRB) assay, G361; details: Melanoma, G361, 48 hours
Method: as §1, §2

CRL1579 = assay: Sulforhodamine B (SRB) assay, CRL1579; details: Melanoma, CRL1579, 48 hours
Method: as §1, §2

A431 = assay: Sulforhodamine B (SRB) assay, A431; details: Melanoma, A431, 48 hours
Method: as §1, §2

A253 = assay: Sulforhodamine B (SRB) assay, A253; details: Melanoma, A253, 48 hours
Method: as §1, §2

MCF7/ADR = assay: Sulforhodamine B (SRB) assay, MCF7/ADR; details: Breast, 48 hours
Method: as §1, §2

Compound	GI50 (SRB assay) (T84) [µg/mL]	GI50 (SRB assay) (LOVO) [µg/mL]	GI50 (SRB assay) (HT29) [µg/mL]	GI50 (SRB assay) (DLD-1) [µg/mL]	GI50 (SRB assay) (COLO205) [µg/mL]	GI50 (SRB assay) (SW480-Kribb) [µg/mL]	GI50 (SRB assay) (SW620) [µg/mL]	GI50 (SRB assay) (KM12) [µg/mL]	GI50 (SRB assay) (HCT15) [µg/mL]	GI50 (SRB assay) (HCT116) [µg/mL]	GI50 (SRB assay) (HCC2998) [µg/mL]	GI50 (SRB assay) (HL60) [µg/mL]	GI50 (SRB assay) (K562/VIN) [µg/mL]	GI50 (SRB assay) (K562/ADR) [µg/mL]	GI50 (SRB assay) (K562) [µg/mL]	GI50 (SRB assay) (PC3) [µg/mL]	GI50 (SRB assay) (HT1080) [µg/mL]	GI50 (SRB assay) (A549) [µg/mL]	GI50 (SRB assay) (NCI H460) [µg/mL]	GI50 (SRB assay) (CAKI-1) [µg/mL]	further results
N.N.[Cl][Pt][Cl] [Cisplatin, cisplatin, reference compound]	>10	>10	>10	>10	>10	>10	>10	>10	>10	>10	>10	>10	>10	>10	>10	>10	>10	>10	>10	>10	GI50 (SRB assay) (RPMI8226): >10 µg/mL; GI50 (SRB assay) (UACC62): >10 µg/mL; GI50 (SRB assay) (SK-MEL-28): >10 µg/mL; GI50 (SRB assay) (SK-MEL-5): >10 µg/mL; GI50 (SRB assay) (LOX-IMVI): >10 µg/mL; GI50 (SRB assay) (A375): >10 µg/mL; GI50 (SRB assay) (MCF7): >10 µg/mL
CN[C@@H]1C[C@H]2O[C@@](C)([C@@H]1OC)n1c3ccccc3c3c4c(c5c6ccccc6n2c5c31)C(=O)NC4 [stausporine, staurosporine, reference compound]																					caspase 3 activity (caspase 3): increased both the caspase 2 and caspase 3 activities; caspase 2 activity (caspase 2): increased both the caspase 2 and caspase 3 activities; cell death (cultured tumor cells [1]): promote cell death; number of cells in G0 (FACS) (cultured tumor cells [2]): increase the number of cells in G0
2-Methyl-5-(p-hydroxyphenylmethyl)-7-naphthylmethyl-3,6-dioxo-hexahydro-[1,2,4]triazolo[4,5-a]pyrazine-1-carboxylic acid benzylamide [Example 4]	1.134	0.532	1.694	1.775	1.136	1.137	1.426	1.451	2.042	0.96	1.047	1.243	1.640	7.682	1.247	1.207	1.469	1.386	1.498	0.467	GI50 (SRB assay) (CACO-2): 1.201 µg/mL; GI50 (SRB assay) (SW480-CWP): 0.980 µg/mL; GI50 (SRB assay) (786-0): 1.417 µg/mL; GI50 (SRB assay) (NCI H23): 1.296 µg/mL; GI50 (SRB assay) 293: 0.731 µg/mL; GI50 (SRB assay) (ACHN): 1.263 µg/mL; GI50 (SRB assay) (RPMI7951): 0.936 µg/mL; GI50 (SRB assay) (M14): 2.289 µg/mL; GI50 (SRB assay) (HMV-I): 1.153 µg/mL; GI50 (SRB assay) (G361): 0.584 µg/mL; GI50 (SRB assay) (CRL1579): 1.830 µg/mL; GI50 (SRB assay) (A431): 1.083 µg/mL; GI50 (SRB assay) (A253): 1.398 µg/mL; GI50 (SRB assay) (UACC62): 0.563 µg/mL; GI50 (SRB assay) (SK-MEL-28): 1.291 µg/mL; GI50 (SRB assay) (SK-MEL-5): 0.888 µg/mL; GI50 (SRB assay) (LOX-IMVI): 1.526 µg/mL; GI50 (SRB assay) (A375): 1.391 µg/mL; GI50 (SRB assay) (MCF7/ADR): 9.487 µg/mL; GI50 (SRB assay) (MCF7): 7.355 µg/mL
